From patent publication US9115385B2, “Methods and compositions for topoisomerase I modulated tumor suppression” (RG BIOPHARMA, LLC, priority 2006, dated 2015)

Tests used:
[1] = biological target: cdk1 (Homo sapiens, UniProt P06493); assay: endogenous cdk1 activity in lysates of treated H23 cells; format: cell-based; design: endogenous in cells; host or cells: H23 cells (lysates); conditions: H23 cells treated with 10 nM, three day assay
From the text: (§1) P=supercoiled plasmid only.

[2] = tested on: topo I serine phosphorylation; assay: topo I immunoprecipitation followed by phosphoserine Western in treated cells; conditions: H23 cells, digital quantitation of band intensities
[3] = tested on: topoisomerase I; assay: topoisomerase I plasmid relaxation assay with nuclear extracts of treated cells; format: cell-based, human; conditions: H23 cells, 72 hours after treatment, 0.75 μg lysates protein per reaction
Method: Topoisomerase I Assays: Assays were carried out using the Topoisomerase I Assay Kit (Topogen, Florida), according to the instructions provided with the kit and using the high salt nuclear extracts prepared as described above. […] The reaction was stopped by adding stop loading dye supplied in the kit and electrophoresed on a 1% agarose/TAE (10 mM TRIS-acetate/1 mM EDTA) gel until the dye front had reached the bottom of the gel. The gel was then stained for 20 minutes in 0.5 μg/mL ethidium bromide, destained in deionized water for 30 minutes, and electrophoresed for an additional hour to enhance band visibility. The gel was photographed and band intensities were analyzed digitally using a Kodak digital camera and analysis software. Some assays were carried out with alkaline phosphatase-treated extracts, prepared as described below, or in the presence of ARF or ARF1β thioredoxin fusion proteins (3, 9, 27 ng), prepared as described above (see pull-down assays).

[4] = tested on: PKC; assay: endogenous PKC activity in lysates of treated H23 cells; conditions: H23 cells treated with 10 nM, three day assay
[5] = tested on: CK2α transcription; assay: RT-PCR of CK2α mRNA in treated H23 cells; conditions: 10 nM, 3 days
[6] = tested on: H23 cells; assay: cell viability assay with camptothecin, H23; format: cell-based, human
Method: Control cells received no pretreatment. […] CK2 activator treatment was for the duration of the assay. Cell viability was scored 3 days post-start of camptothecin treatment.
Viability assays were performed 24 hours post-vector treatment by exposing cells for 24 hours to increasing doses of camptothecin (a topoisomerase I inhibitor) in triplicate in a 96-well viability assay, and assaying them for viability 5 days post-start of vector treatment (FIG. 5B). For each growth curve, cell viabilities were normalized to the viability of cells treated with vector only (no camptothecin), to enable a direct visualization of the sensitization effect.
Studies of a large panel of cell lines have shown that cell lines with overexpressed CK2 (FIGS. 11B1-B3 and 11C1-C3) display hyper serine phosphorylation of topo I (FIG. 11D) that correlates with sensitivity to camptothecin (FIG. 11A). […] Cells were plated at 2000 cells per well and allowed to attach. Triplicate wells were then treated with the indicated doses of camptothecin for 18 hours, and monitored for viability 3 days post-start of treatment. Viability is represented as a % of control, untreated, cell viability. Referring to FIGS. 11B1-B3, PKC (B1), cdk1 (B2), and CK2 (B3) levels in cancer cell lines: Cell lysates were prepared from the indicated cancer cell lines and assayed for enzymatic activities, or evaluated by Western analysis for total PKC, cdk1, or CK2 protein levels. Actin levels served as a control (same control for PKC, cdk1, and CK2). Referring to FIGS. 11C1-C3 PKC (C1), cdk1 (C2), and CK2 (C3) levels in normal cell lines, compared to H358 and H23: Cell lysates were prepared from the indicated cell lines and evaluated as before. Numbers below Western blots indicate digital reading of band intensities of PCK, cdk1, or CK2 Western blots, relative to H358. Referring to FIG. 11D, topo-I immunoprecipitation followed by topo-I Western (top row) or phosphoserine Western (bottom row). Numbers below Western blot are digital readings of ser-P band intensities relative to H358.

[7] = biological target: T1, purified CK2 holoenzyme (Homo sapiens, UniProt P68400); assay: in vitro kinase assay of purified CK2 holoenzyme; format: biochemical; conditions: 10 nM
T1 construct: purchased Promega, Madison, Wis
From the text: as §1

[8] = biological target: T2, CK2 protein (α subunit) (Homo sapiens, UniProt P68400); assay: Western analysis of CK2 protein in lysates of treated cells; format: cell-based; conditions: H23 cells, 72 hours
T2 construct: endogenous in cells; host or cells: H23 cells (lysates)

[9] = tested on: purified PKC; assay: in vitro kinase assay of purified PKC; conditions: 10 nM
[10] = tested on: CK2; assay: CK2 activity in nuclear extracts of treated H358 or H23 cells; format: cell-based, human
[11] = tested on: ARF/topoisomerase I complex; assay: topo I immunoprecipitation followed by ARF Western in treated cells; format: cell-based, human; conditions: H23 cells treated with CK2 activator
[12] = biological target: T3, purified cdk1 (Homo sapiens, UniProt P06493); assay: in vitro kinase assay of purified cdk1; format: biochemical; conditions: 10 nM
T3 construct: purchased Enzo Life Sciences, Farmingdale, N.Y
From the text: as §1

[13] = tested on: topo I phosphoserine 506 epitope; assay: Western of phosphoserine 506 epitope of topo I in treated cells; format: cell-based, human; conditions: H23 cells treated as in FIG. 13B
[14] = biological target: T4, CK2α catalytic subunit (Homo sapiens, UniProt P68400); assay: in vitro kinase assay of purified CK2α catalytic subunit; format: biochemical; conditions: 10 nM
T4 construct: purchased Active Motif, Carlsbad, Calif
From the text: as §1

T2 sequence (P68400 whole entry): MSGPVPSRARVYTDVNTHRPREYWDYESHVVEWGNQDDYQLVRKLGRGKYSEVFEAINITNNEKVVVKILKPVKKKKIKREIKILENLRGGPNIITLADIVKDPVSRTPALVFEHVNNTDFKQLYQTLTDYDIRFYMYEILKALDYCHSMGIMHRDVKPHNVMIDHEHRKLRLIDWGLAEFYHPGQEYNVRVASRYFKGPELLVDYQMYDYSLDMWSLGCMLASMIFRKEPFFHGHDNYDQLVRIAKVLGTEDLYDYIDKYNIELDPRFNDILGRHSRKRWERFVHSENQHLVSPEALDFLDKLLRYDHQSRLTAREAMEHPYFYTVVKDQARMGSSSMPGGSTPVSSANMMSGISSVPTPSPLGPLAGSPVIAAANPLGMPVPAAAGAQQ
T1 sequence (P68400 whole entry): as above
T1 sequence (P67870 whole entry partner): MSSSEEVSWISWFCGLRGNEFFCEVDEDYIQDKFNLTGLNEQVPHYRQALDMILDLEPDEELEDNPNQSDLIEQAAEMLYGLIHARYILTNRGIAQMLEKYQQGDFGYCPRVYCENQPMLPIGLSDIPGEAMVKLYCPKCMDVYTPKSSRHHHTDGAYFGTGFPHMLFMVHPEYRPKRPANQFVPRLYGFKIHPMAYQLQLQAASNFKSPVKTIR
T4 sequence (P68400 whole entry): as the sequence (P68400 whole entry) above
T3 sequence (P06493 whole entry, species assumed): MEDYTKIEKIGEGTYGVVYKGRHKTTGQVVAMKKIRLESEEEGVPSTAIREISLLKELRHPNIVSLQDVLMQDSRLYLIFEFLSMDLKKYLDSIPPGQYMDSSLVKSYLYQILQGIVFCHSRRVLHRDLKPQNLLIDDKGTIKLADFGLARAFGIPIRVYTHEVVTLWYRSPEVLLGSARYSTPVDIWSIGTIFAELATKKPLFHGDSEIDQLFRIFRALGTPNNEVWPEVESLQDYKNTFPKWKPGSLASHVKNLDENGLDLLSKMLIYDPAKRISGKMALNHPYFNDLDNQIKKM
T3 sequence (P14635 whole entry partner, species assumed): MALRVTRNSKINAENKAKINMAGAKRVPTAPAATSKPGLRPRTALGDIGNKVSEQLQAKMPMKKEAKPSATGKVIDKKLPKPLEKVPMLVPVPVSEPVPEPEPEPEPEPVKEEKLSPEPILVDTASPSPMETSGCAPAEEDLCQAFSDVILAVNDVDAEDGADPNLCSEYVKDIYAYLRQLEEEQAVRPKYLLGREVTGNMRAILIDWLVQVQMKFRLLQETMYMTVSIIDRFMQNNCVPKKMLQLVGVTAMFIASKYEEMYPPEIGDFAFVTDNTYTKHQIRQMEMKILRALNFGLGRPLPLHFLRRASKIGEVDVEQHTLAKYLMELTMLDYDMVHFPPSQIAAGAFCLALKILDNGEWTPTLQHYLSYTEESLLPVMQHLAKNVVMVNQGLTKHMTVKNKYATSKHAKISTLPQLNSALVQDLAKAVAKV
Sequence of cdk1 (P06493 whole entry): as the sequence (P06493 whole entry, species assumed) above
Sequence of cdk1 (P14635 whole entry partner): as the sequence (P14635 whole entry partner, species assumed) above

CCn1cnc(C(N)=O)c1C(N)=O [CK2 activator]
effect on endogenous cdk1 activity [1]: no effect
increase in topo I phosphorylation relative to untreated H23 cells [2]: ~4.7 fold
conversion of supercoiled plasmid to relaxed form by nuclear extract [3]: converts virtually all of the supercoiled form to relaxed form
effect on endogenous PKC activity [4]: no effect
CK2α transcription [5]: not CK2α transcription
effect on cell viability (activator alone) ([6]; 10 nM): no effect on cell viability
change of cellular response to camptothecin ([6]; 10 nM activator for duration of assay, camptothecin 18 hours, 3-day viability): more sensitive to camptothecin
lowest dose that could activate CK2 while having no effect on cell viability ([6]; range of 5-100 nM tested): 10 nM
stimulation of purified CK2 holoenzyme activity [7]: ~6 fold
CK2 protein accumulation [8]: enhances the accumulation of CK2 protein
effect on purified PKC activity [9]: no effect
increase in CK2 activity relative to untreated cells ([10]; H23 cells, 10 nM for duration of assay): 4 fold
increase in CK2 activity ([10]; H358 cells, similar treatment (data not shown)): 10%
p14ARF/topo I complex formation [11]: complex formation occurs
effect on purified cdk1 activity [12]: no effect
cellular levels of the phosphoserine 506 epitope [13]: induces cellular levels of the phosphorylated epitope
stimulation of CK2α catalytic subunit activity [14]: ~6 fold
